Measured values: PMC11062575 (Science Advances, 2024)
Changes are numbered by the printed parent chain.

Key:
human TRPV3 C496A mutant = human TRPV3 C496A mutant (Homo sapiens, UniProt Q8NET8, C496A); settings: C496A vs wild type
mouse TRPV3 Y564A = mouse TRPV3 Y564A vs wild type; cited from earlier work
wild-type human TRPV3 = molecular target: T1, wild-type human TRPV3 (Homo sapiens, UniProt Q8NET8); assay: Fura-2AM ratiometric Ca2+ uptake measurements, wild-type TRPV3; format: cell-based
T1 sequence (Q8NET8 1-791 isoform Q8NET8-2): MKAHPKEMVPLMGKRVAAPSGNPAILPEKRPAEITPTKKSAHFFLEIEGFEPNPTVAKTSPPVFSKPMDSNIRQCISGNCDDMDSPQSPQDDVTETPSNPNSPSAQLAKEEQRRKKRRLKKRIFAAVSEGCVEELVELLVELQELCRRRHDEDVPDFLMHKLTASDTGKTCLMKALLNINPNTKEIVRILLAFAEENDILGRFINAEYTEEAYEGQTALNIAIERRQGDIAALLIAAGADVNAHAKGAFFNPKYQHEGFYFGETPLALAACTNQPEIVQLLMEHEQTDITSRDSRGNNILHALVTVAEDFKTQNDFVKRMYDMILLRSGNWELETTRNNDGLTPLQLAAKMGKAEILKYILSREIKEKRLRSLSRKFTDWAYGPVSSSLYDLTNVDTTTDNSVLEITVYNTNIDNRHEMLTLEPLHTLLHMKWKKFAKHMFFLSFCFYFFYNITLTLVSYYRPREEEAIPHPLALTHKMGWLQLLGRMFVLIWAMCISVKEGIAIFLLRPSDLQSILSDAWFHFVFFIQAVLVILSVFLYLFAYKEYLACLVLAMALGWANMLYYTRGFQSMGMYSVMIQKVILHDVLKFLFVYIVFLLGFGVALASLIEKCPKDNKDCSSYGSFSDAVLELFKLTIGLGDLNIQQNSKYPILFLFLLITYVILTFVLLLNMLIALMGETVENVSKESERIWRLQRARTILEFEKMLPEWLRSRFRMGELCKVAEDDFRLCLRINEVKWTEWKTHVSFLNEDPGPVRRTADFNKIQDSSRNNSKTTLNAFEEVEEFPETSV

human TRPV3 L557A mutant = molecular target: T2, human TRPV3 L557A mutant (Homo sapiens, UniProt Q8NET8, L557A); assay: Fura-2AM Ca2+ uptake measurements, L557A mutant; format: cell-based
T2 sequence (Q8NET8 1-791 isoform Q8NET8-2 L557A): T1 sequence (Q8NET8 1-791 isoform Q8NET8-2) with L557A

Sequence of human TRPV3 C496A mutant (Q8NET8 1-791 isoform Q8NET8-2 C496A): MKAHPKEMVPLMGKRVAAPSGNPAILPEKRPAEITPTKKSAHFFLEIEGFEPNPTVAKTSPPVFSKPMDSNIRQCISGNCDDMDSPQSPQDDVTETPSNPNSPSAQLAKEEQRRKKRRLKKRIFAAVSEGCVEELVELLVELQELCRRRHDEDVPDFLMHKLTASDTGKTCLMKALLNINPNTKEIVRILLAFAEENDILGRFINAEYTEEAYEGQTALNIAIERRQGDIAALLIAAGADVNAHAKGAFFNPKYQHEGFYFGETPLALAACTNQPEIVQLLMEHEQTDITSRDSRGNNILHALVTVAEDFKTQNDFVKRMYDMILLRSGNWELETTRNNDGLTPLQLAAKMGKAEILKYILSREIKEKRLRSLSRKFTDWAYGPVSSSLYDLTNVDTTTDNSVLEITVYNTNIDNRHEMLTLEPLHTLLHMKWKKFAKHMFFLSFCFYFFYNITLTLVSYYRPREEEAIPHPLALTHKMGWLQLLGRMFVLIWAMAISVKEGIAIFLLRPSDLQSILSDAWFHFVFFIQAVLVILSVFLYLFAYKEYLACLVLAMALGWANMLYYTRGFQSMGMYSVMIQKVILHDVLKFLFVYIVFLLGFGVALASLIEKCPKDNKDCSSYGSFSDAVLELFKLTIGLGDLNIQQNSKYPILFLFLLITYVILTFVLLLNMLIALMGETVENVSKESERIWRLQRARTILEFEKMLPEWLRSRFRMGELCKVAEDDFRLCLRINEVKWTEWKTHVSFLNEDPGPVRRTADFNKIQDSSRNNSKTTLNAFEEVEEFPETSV

Structure (SMILES)	activating potency enhanced compared to wild-type TRPV3 (human TRPV3 C496A mutant)	increase in 2-APB potency on Y564 substitution with alanine (mouse TRPV3 Y564A) [fold]	EC50 (wild-type human TRPV3) [µM]	maximum absolute value of the fluorescence intensity ratio (F340/F380) (wild-type human TRPV3; wild type, n = 3)	EC50 (human TRPV3 L557A mutant) [µM]	maximum absolute value of the fluorescence intensity ratio (F340/F380) (human TRPV3 L557A mutant; L557A, n = 3, P = 0.61 vs wild type)
NCCOB(c1ccccc1)c1ccccc1 [2-APB, 2-aminoethoxydiphenylborane]	~ 3 fold	20	–	–	–	–
CCCc1cc(O)c2c(c1)OC(C)(C)[C@@H]1CCC(C)=C[C@@H]21 [THCV, tetrahydrocannabivarin]	–	–	6.1 ± 0.5	5.29 ± 0.04	0.081 ± 0.001	5.58 ± 0.47
